The source made the active and inactive calls.
How the values were obtained:
[1] = biological target: T1, Alkaline phosphatase, tissue-nonspecific isozyme (Homo sapiens, UniProt P05186); assay: human TNAP enzyme inhibitors, SAR follow-up, biochemical, luminescent, dose response (AID 1056)
T1 sequence (P05186 whole entry): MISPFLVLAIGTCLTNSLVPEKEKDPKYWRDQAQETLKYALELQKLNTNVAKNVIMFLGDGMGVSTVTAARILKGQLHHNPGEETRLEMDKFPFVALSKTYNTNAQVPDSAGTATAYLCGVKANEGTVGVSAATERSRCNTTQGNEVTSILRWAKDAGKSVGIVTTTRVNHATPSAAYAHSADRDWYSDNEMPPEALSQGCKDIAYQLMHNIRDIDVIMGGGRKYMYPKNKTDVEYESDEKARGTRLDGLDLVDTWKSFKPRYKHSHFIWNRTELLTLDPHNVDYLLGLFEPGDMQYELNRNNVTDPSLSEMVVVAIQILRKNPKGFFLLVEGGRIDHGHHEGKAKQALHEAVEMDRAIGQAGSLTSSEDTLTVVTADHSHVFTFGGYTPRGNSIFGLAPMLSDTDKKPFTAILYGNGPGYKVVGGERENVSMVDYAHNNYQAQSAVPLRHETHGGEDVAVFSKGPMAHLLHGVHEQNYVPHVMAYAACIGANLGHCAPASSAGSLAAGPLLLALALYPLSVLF

[2] = biological target: T2, Corticotropin-releasing factor receptor 2/Corticotropin-releasing factor-binding protein (Homo sapiens, UniProt P24387+Q13324); assay: Dose Response confirmation of uHTS hits for small molecule antagonists of the CRF-binding protein and CRF-R2 receptor complex.; assay type: functional; settings: read-out: IC50_Mean
T2 sequence (Q13324 whole entry): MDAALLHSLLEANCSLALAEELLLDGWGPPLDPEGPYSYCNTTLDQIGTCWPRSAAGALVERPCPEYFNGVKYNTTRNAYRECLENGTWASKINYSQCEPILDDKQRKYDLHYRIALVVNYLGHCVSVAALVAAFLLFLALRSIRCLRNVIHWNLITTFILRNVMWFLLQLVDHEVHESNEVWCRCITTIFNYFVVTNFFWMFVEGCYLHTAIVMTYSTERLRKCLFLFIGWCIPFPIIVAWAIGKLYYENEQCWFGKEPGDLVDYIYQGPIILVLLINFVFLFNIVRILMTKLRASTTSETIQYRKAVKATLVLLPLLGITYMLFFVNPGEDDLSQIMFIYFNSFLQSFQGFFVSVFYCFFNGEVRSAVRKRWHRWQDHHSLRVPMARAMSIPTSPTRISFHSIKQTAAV
T2 sequence (P24387 whole entry): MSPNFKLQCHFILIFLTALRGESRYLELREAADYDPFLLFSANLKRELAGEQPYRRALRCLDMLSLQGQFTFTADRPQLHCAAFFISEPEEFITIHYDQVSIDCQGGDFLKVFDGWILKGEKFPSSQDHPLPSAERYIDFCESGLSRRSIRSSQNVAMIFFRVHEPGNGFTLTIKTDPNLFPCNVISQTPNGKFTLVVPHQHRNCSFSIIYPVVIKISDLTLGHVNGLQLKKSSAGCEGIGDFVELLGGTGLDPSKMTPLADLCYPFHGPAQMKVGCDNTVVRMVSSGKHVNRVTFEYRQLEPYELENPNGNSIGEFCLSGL

[3] = biological target: Glyceraldehyde-3-phosphate dehydrogenase (Homo sapiens, UniProt P04406)
[4] = biological target: T2, Corticotropin-releasing factor receptor 2/Corticotropin-releasing factor-binding protein; assay: activators of CRF receptor 2 with binding protein – uHTS hits, confirmation (AID 602473); assay type: functional; settings: read-out: EC50_Mean
cells [5] = assay type: functional, cell-based
cells [6] = assay type: functional, cell-based; remark: listed apart in the source
[7] = control 3'UTR Renilla luciferase suppression, dose response, counter-screen for Shn3 inhibitor project, cell-based, Clone20-Shn3RL, cherry-picked (AID 624133); assay type: functional
[8] = HepG2 cell cytotoxicity, dose response, cytotoxicity control for Shn3 inhibitor project, CellTiter-Glo, cherry-picked (AID 624134); assay type: functional, cell-based
[9] = Shn3 3'UTR reporter inhibitors, dose response, cell-based, Clone20 osteoblasts, firefly luciferase, cherry-picked (AID 624132); assay type: functional;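 also: firefly luciferase luminescence from reporter carrying the Shn3 3'UTR in osteoblasts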
Protein RecA = biological target: T3, Protein RecA (Mycobacterium tuberculosis, UniProt P9WHJ3); assay: Fluorescence Cell-Free Homogeneous Dose Retest to Identify Inhibitors of RecA-Intein Splicing Activity. [Related pubchem assays (depositor defined):AID2097, AID2223, AID489010, AID492950]; assay type: functional
T3 sequence (P9WHJ3 whole entry): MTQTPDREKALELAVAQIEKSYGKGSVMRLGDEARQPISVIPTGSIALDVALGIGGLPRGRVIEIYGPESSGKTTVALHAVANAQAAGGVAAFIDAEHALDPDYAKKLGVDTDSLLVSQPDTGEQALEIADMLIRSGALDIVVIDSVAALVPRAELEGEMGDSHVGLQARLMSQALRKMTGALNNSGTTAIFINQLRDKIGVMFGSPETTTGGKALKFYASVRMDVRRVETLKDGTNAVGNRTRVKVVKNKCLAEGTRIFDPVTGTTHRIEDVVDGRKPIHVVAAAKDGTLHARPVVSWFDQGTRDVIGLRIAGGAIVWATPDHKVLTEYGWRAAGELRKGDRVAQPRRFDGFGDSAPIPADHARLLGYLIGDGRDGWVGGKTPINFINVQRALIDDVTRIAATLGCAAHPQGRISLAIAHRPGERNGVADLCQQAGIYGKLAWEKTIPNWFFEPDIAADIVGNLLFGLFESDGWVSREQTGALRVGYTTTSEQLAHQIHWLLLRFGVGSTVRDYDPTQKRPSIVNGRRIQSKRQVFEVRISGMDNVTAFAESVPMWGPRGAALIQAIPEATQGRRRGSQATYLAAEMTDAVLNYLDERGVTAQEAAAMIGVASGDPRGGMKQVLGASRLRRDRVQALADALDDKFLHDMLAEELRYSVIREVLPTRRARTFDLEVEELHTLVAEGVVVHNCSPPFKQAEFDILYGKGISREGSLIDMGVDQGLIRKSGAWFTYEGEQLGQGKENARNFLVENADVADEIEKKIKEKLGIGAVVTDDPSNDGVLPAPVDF

[10] = biological target: T4, Replicative DNA helicase DnaB (Mycobacterium tuberculosis, UniProt P9WMR3); assay: DnaB intein splicing inhibitors, dose response, biochemical, cell-free fluorescence (AID 449749); assay type: functional
T4 sequence (P9WMR3 whole entry): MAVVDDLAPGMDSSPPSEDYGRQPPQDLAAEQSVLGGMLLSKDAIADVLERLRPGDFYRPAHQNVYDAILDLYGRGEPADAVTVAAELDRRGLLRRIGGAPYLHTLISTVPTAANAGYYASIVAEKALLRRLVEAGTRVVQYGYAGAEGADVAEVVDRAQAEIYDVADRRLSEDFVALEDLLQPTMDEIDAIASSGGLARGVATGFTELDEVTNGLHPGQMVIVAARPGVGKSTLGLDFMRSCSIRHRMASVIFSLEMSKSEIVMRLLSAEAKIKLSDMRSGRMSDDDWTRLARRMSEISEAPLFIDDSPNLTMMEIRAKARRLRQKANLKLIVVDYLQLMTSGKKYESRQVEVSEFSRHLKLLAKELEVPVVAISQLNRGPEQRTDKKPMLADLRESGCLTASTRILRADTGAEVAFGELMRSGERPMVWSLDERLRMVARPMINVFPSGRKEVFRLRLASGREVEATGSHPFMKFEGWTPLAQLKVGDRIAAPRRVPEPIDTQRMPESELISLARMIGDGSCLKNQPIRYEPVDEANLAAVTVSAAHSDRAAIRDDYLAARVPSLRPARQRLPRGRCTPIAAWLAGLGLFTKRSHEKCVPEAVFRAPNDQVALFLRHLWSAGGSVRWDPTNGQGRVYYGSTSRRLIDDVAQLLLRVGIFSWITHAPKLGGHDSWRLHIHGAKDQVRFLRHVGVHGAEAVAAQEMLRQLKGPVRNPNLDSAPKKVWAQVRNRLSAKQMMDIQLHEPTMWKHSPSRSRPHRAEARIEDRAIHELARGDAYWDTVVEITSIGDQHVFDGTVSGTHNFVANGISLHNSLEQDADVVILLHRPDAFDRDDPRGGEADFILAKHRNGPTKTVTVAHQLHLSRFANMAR

[11] = intracellular Trypanosoma cruzi inhibitors in host cells – cell-based, plate reader, cherry-pick samples, set 3, dose response (AID 651818); assay type: functional;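 also: compounds incubated with infected cells for about four days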
[12] = biological target: T5, Rac GTPase-activating protein 1 (Homo sapiens, UniProt Q9H0H5); assay: MgcRacGAP GTPase-activating activity inhibitors, confirmation, biochemical, ADP Hunter fluorescence, primary and confirmatory (AID 624330); assay type: functional
T5 sequence (Q9H0H5 whole entry): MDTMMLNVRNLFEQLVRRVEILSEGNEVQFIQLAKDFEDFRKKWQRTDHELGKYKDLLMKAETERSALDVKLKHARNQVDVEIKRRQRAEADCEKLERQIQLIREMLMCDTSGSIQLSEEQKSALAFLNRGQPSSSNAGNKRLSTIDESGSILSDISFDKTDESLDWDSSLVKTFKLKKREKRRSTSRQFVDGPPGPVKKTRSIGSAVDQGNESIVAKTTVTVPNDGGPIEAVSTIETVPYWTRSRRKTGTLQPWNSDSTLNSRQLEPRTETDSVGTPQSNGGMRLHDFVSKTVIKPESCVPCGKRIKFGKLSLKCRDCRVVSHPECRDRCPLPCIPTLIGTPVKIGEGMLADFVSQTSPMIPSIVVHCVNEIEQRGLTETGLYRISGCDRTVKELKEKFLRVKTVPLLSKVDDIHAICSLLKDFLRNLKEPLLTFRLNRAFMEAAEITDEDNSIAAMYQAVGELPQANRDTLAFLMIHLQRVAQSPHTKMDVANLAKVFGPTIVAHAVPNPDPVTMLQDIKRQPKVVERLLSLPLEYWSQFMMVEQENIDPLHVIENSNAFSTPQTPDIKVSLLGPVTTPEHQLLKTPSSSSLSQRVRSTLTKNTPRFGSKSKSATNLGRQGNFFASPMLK

[13] = biological target: T6, Mannose-6-phosphate isomerase (Homo sapiens, UniProt P34949); assay: human PMI inhibitors, high substrate, primary screen, biochemical, fluorescence intensity, high mannose 6-phosphate (AID 1220)
T6 sequence (P34949 whole entry): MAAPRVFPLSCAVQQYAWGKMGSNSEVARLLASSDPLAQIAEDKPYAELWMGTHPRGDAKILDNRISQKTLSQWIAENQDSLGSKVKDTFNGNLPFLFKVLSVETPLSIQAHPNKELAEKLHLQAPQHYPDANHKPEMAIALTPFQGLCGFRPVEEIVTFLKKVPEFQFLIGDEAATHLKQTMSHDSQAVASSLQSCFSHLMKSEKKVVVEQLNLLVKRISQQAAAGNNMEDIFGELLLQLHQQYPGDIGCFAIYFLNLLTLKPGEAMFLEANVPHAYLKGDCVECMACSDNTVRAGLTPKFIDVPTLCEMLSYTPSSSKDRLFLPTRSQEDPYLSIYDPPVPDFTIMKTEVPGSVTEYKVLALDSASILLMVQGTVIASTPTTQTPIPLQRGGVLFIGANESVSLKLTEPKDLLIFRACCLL

Chain of Glyceraldehyde-3-phosphate dehydrogenase (P04406 whole entry): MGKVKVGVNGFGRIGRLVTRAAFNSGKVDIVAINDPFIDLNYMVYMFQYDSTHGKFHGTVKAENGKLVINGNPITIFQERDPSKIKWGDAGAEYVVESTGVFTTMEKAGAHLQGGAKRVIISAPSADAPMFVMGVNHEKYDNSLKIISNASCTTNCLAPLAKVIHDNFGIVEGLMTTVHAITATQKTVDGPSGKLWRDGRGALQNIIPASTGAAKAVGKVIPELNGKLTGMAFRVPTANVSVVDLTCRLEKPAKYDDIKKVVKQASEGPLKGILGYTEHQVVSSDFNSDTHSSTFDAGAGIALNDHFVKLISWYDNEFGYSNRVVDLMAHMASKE

CCCSc1nnc(NC(C)=O)[nH]1
IC50 [1]: 0.449 µM (active) | IC50 [2]: > 47.1 µM (inactive) | IC50 [3]: > 10 µM (inconclusive) | EC50 [4]: > 53 µM (inactive)

Cc1ccc(-n2nc3c(=O)n(CC(=O)NCc4ccccc4)nc(C)c3c2C)cc1
EC50 (cells [5]): > 350 µM (not active) | EC50 (cells [6]): > 350 µM (not active)

c1cncc(Cn2ccnc2)c1
IC50 [1]: > 100 µM (inactive) | IC50 [3]: > 100 µM (not active)

CCC1CCc2sc(C(=O)NCc3ccccn3)cc2C1 (centres undefined)
EC50 (cells [5]): 52.4 µM (active) | EC50 (cells [6]): > 350 µM (not active)

O=C1C(Cl)=C(N2CCN(c3ncccn3)CC2)C(=O)N1c1cccc(C(F)(F)F)c1
IC50 [3]: > 50 µM (inconclusive)

COc1ccc(OC)c(S(=O)(=O)Nc2ccc[nH]c2=O)c1
IC50 [1]: 6.32 µM (active) | IC50 [3]: > 100 µM (not active)

COc1ccccc1-c1cc(C(F)(F)F)nc(S(=O)(=O)CCCC(=O)N2CCCCC2C)n1 (centres undefined)
AC50 [7]: 8.84 µM (active) | AC50 [8]: 25.7 µM (active) | AC50 [9]: 2.65 µM (active) | EC50 (cells [5]): > 350 µM (not active) | EC50 (Protein RecA): 3.11 µM (active) | AC50 [10]: 1.97 µM (active) | EC50 (cells [6]): > 350 µM (not active)

CC(=O)Nc1nnc(SCCc2ccccc2)[nH]1
IC50 [1]: > 100 µM (inactive) | IC50 [3]: > 100 µM (not active)

C[C@H]1CN([C@@H](C)CO)C(=O)c2cc(NC(=O)Nc3cccc4ccccc34)ccc2O[C@H]1CN(C)Cc1ccc(Cl)c(Cl)c1
AC50 [11]: 5.7 µM (active)

C[C@@H]1CN([C@H](C)CO)C(=O)Cc2cc(NC(=O)Nc3ccc(F)cc3)ccc2O[C@@H]1CN(C)Cc1ccc(C(=O)Nc2ccccc2N)cc1
AC50 [11]: 2.04 µM (active)

COc1ccc(S(=O)(=O)Nc2ccc3c(c2)C(=O)N([C@@H](C)CO)C[C@H](C)[C@H](CN(C)Cc2ccc(Oc4ccccc4)cc2)O3)cc1
AC50 [11]: 1.94 µM (active)

C[C@@H]1CN([C@@H](C)CO)C(=O)c2cccc(NC(=O)c3nc4ccccc4s3)c2O[C@H]1CN(C)Cc1ccc(-c2ccccc2)cc1
AC50 [11]: 3.59 µM (active)

Cc1ccc(O)c(/C=N/c2ccc3[nH]ncc3c2)c1
IC50 [12]: 27.7 µM (active) | IC50 [13]: > 50 µM (not active)

c1cncc(-c2nccs2)c1
IC50 [1]: > 100 µM (inactive) | IC50 [3]: > 100 µM (not active)

O=C(O)c1ccc(N2C(=O)CSC2=S)cc1
EC50 (cells [5]): > 350 µM (not active) | EC50 (cells [6]): > 350 µM (not active)

O=C(c1[nH]nc2c1COc1ccccc1-2)N1CCCC1
IC50 [1]: 0.289 µM (active) | IC50 [3]: > 100 µM (not active)
